The values below come from PMC8838847, “Design, Synthesis and Cytotoxicity of Thiazole-Based Stilbene Analogs as Novel DNA Topoisomerase IB Inhibitors” (Molecules, 2022).

In data set [1] the test system is human breast cancer (MCF-7) cells. The experiment in a line: MTT cytotoxicity assay, MCF-7. The format is cell-based. Conditions: five doses 0.01-100 µM. As for the experimental part: (§1) The cytotoxicity of the desired compounds was assessed through MTT assay against two human cancer cell lines, human breast cancer (MCF-7) and colon cancer (HCT116), and one normal cell line, human embryonic kidney 293T (HEK293T). CPT and etoposide (VP-16) were used as positive controls. The compounds were incubated with cells for 72 h in a five-dose assay ranging from 0.01 to 100 µΜ. After the drug treatments, MTT solution was added to test the percentage growth of tumor cells.
(§2) The cells were cultured on RPMI 1640 Medium at 37 °C in a humidified atmosphere with 5% CO2. The cytotoxicities of the target compounds were evaluated through MTT assay against two human cancer cell lines (human breast cancer MCF-7 and human colon cancer HCT116). For the compound treatment experiments, the cancer cells were treated with the compounds (pre-dissolved in DMSO) via a five-dose assay ranging from 10^−8 to 10^−4 M. After incubation for 72 h at 37 °C, MTT solution (20 μL, 2.5 mg/mL) in PBS (PBS without MTT as the blank) was added to each well of the culture plate. After incubation for 4 h, the formazan crystal formed in the well was dissolved in 100 μL of DMSO for an optical density of 570 nm. The IC50 value was calculated using nonlinear regression analysis (GraphPad Prism). Every experiment was conducted three times, independently.
On the technique in general: Tetrazolium dyes change colour on reduction, which living cells bring about.

Data set [2] concerns human embryonic kidney 293T (HEK293T) cells. The data set can be described thus: MTT cytotoxicity assay, HEK293T normal cells. Type of data set: cell-based. Conditions: 72 h, normal cell line. As for the experimental part:
as §1, §2

A short description of data set [3]: MTT cytotoxicity assay, HEK293T normal cells. The format is cell-based, human. Conditions: human, HEK293T cells (normal cell line). Here is the method: as §1, §2
Data set [4] has as its system human colon cancer (HCT116) cells. The data set can be described thus: MTT cytotoxicity assay, HCT116. Type of data set: cell-based. Conditions: five doses 0.01-100 µM. Here is the method: as §1, §2
In data set [5] the target is T1, calf thymus Top1 (Bos taurus, UniProt F1MN93).
T1 construct: 1 unit of calf thymus Top1; from tissue; host or cells: calf thymus
T1 sequence (F1MN93 1-767): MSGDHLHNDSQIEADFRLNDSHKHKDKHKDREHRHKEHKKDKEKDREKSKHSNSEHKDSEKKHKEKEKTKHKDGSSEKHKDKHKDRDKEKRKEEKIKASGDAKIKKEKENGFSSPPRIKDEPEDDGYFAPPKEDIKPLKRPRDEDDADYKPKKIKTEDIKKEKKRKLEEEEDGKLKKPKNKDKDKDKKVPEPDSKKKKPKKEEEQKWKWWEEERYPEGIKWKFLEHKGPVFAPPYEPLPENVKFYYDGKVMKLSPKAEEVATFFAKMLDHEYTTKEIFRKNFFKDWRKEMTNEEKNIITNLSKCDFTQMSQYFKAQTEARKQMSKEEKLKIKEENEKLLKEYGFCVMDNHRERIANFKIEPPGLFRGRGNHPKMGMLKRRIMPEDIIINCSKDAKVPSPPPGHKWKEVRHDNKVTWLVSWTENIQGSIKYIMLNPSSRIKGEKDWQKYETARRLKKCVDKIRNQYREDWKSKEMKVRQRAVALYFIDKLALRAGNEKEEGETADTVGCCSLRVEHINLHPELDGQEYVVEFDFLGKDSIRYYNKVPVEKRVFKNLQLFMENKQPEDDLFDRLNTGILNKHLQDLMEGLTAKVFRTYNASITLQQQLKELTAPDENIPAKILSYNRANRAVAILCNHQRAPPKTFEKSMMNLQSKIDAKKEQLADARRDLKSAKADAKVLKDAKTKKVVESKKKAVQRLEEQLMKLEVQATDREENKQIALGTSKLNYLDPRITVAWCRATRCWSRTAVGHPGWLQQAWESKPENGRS
The data set can be described thus: Top1-mediated DNA relaxation assay. The format is biochemical. Conditions: for Relaxation Assay (Top1 inhibitory activity): compounds at 50 µM, semi-quantitative, relative to CPT at 50 µM; for supercoiled DNA remaining: compound at 125 μM. Here is the method: The synthesized compounds 6–37 were evaluated for Top1 inhibitory activity by measurement of the Top1-mediated DNA relaxation assay. The compounds were tested at 50 µΜ using CPT as positive control, and the results were semi-quantitatively expressed relative to CPT at 50 µΜ as follows: ++++, more than 80% activity; +++, between 40% and 79% activity; ++, between 10% and 39% activity; +, less than 10% activity. […] In phenyl A, the 4-position halogen (X) remarkably affected the inhibition against Top1. […] In phenyl B, the introduction of substituents at the 3-position was beneficial for the Top1 inhibition, and the derivatives presented good tolerance of the 3-substituents, since compounds 8 (++++) and 13 (+++) with electron-donating -Me or -OMe and also compound 19 (+++) with electron-withdrawing -Br had good inhibition against Top1. For substituents at the 4-position, the strong electron-withdrawing -CF3 (10, +++) and -F (15, +++) increased the Top1 inhibitory activity compared to compound 6 (R = H), while the weak electron-withdrawing -Cl (17, +) and the electron-donating -Me (9, +) and -OMe (14, +) decreased the activity, with the exception of tert-Bu (11, +++).
As previously mentioned, compound 8 had the best inhibition activity against Top1, and therefore was selected for further investigation. A semi-quantitative Top1-mediated relaxation assay of compound 8 was performed at concentrations of 0.2, 1, 5, 25 and 125 μM.
The compounds were tested for their Top1 inhibitory activity using a Top1-mediated relaxation assay. Briefly, the reaction mixture (20 μL) with 0.5 μg of supercoiled pBR322 DNA in relaxation buffer (10 mM Tris-HCl, pH 7.5, 50 mM KCl, 5 mM MgCl2, 15 μg/mL BSA, 40 μg/mL DTT) was incubated with 1 unit of calf thymus Top1 in the absence or in the presence of the compound for 30 min at 37 °C. Then, the reaction solution was added with 6 × loading buffer (4 μL) and was analyzed using a 0.8% agarose gel in TBE buffer at 4.6 V/cm for 1.5 h. Gel was stained with 1 × GelRed for 30 min and subsequently visualized with a UV transilluminator.

The mark [6] stands for this setting: semi-quantitative relaxation assay (Figure 3).

One may read the IC50 as the concentration that gives 50% inhibition. The low end stands for greater potency, the high end for weaker potency. For orientation: melting point means the temperature of the solid-liquid transition.

`CC(C)(C)c1ccc(/C=C/c2nc(-c3ccc(F)cc3)cs2)cc1` [Compound 11, (E)-2-(4-tert-butylstyryl)-4-(4-fluorophenyl)thiazole]: the melting point fell in the range of 146 to 148 °C. Further, the IC50 in data set [1] (72 h) is 6.31 ± 0.51 µM. This compound showed a half-maximal inhibitory concentration (IC50) in data set [1] (Homo sapiens, MCF7, 72 h) of less than 10 µM. Further, the 50% inhibitory concentration (IC50) in data set [2] was 12 ± 2.45 µM. This compound displayed an IC50 at 72 h in data set [3] of more than 10 µM.
Compound `COc1ccccc1/C=C/c1nc(-c2ccc(Br)cc2)cs1` [Compound 30, (E)-4-(4-bromophenyl)-2-(2-methoxystyryl)thiazole] showed a melting point of 110 to 112 °C. In addition, the half-inhibitory concentration (IC50) in data set [4] (Homo sapiens, HCT-116, 72 h) is more than 100 µM. For the same compound, in data set [1] (Homo sapiens, MCF7, 72 h), the IC50 is more than 100 µM. Besides, the “Relaxation Assay (Top1 inhibitory activity)” value in data set [5] is reported as “+ (less than 10% activity)”.
In turn, `Cc1cccc(/C=C/c2nc(-c3ccc(F)cc3)cs2)c1` [Compound 8, (E)-2-(3-methylstyryl)-4-(4-fluorophenyl)thiazole] gave a melting point of 148 to 149 °C. Moreover, the “Top1 inhibition compared with CPT” value in data set [5] (compound at 25 μM, semi-quantitative relaxation assay (Figure 3)) is reported as “equipotent Top1 inhibition with CPT”. The “supercoiled DNA remaining” value in data set [5] (setting [6]) came to 75%. Moreover, 10.2 ± 0.68 µM corresponded to half-maximal inhibition in data set [2] (IC50). For the same compound, the IC50 at 72 h in data set [3] is more than 10 µM.
`COc1ccc(/C=C/c2nc(-c3ccc(Br)cc3)cs2)cc1` [Compound 32, (E)-4-(4-bromophenyl)-2-(4-methoxystyryl)thiazole] showed a melting point of 189 to 191 °C. Further, the IC50 in data set [4] (Homo sapiens, HCT-116, 72 h) is more than 100 µM. The IC50 in data set [1] (Homo sapiens, MCF7, 72 h) was more than 100 µM. Further, the “Relaxation Assay (Top1 inhibitory activity)” value in data set [5] is “+ (less than 10% activity)”.
Turning to `COc1cccc(/C=C/c2nc(-c3ccc(Br)cc3)cs2)c1` [Compound 31, (E)-4-(4-bromophenyl)-2-(3-methoxystyryl)thiazole], the melting point fell in the range of 112 to 113 °C. Moreover, in data set [4] (Homo sapiens, HCT-116, 72 h), the IC50 stood at 40.3 ± 7.8 µM. Also, in data set [1] (Homo sapiens, MCF7, 72 h), the IC50 was found to be 45.8 ± 4.47 µM. The “Relaxation Assay (Top1 inhibitory activity)” value in data set [5] is recorded as “+ (less than 10% activity)”.
In turn, `Fc1ccc(-c2csc(/C=C/c3ccc(Cl)cc3Cl)n2)cc1` [Compound 20, (E)-2-(2,4-Dichlorostyryl)-4-(4-fluorophenyl)thiazole] registered a melting point of 131 to 133 °C. Further, the IC50 in data set [4] (Homo sapiens, HCT-116, 72 h) came out at 54.8 ± 0.73 µM. In addition, the IC50 in data set [1] (Homo sapiens, MCF7, 72 h) worked out at 72.4 ± 2.15 µM. Also, the “Relaxation Assay (Top1 inhibitory activity)” value in data set [5] was “+ (less than 10% activity)”.
For `COc1ccc(/C=C/c2nc(-c3ccc(F)cc3)cs2)cc1` [Compound 14, (E)-2-(4-methoxystyryl)-4-(4-fluorophenyl)thiazole] the same measures were 124 to 125 °C, more than 100 µM, more than 100 µM and “+ (less than 10% activity)”.
Take `Clc1ccc(-c2csc(/C=C/c3ccccc3Cl)n2)cc1` [Compound 25, (E)-4-(4-chlorophenyl)-2-(2-chlorostyryl)thiazole]: the melting point lay within 109 to 110 °C. Besides, half-maximal inhibition in data set [4] (Homo sapiens, HCT-116, 72 h) (IC50) required 51 ± 3.7 µM. Besides, in data set [1] (Homo sapiens, MCF7, 72 h), the concentration for half-maximal inhibition (IC50) worked out at 48.5 ± 6.67 µM. In addition, the “Relaxation Assay (Top1 inhibitory activity)” value in data set [5] is “+ (less than 10% activity)”.
`CC(C)(C)c1ccc(/C=C/c2nc(-c3ccc(Cl)cc3)cs2)cc1` [Compound 23, (E)-4-(4-chlorophenyl)-2-(4-(tert-butyl)styryl)thiazole] came in with a melting point of 74 to 75 °C. Moreover, in data set [4] (72 h), half-maximal inhibition (IC50) required 2.87 ± 0.26 µM. For the same compound, in data set [4] (Homo sapiens, HCT-116, 72 h), the IC50 is less than 5 µM. For the same compound, half-maximal inhibition in data set [1] (72 h) (IC50) required 7.22 ± 0.4 µM. The IC50 in data set [1] (Homo sapiens, MCF7, 72 h) was less than 10 µM. For the same compound, in data set [5], the “Relaxation Assay (Top1 inhibitory activity)” value was “+ (less than 10% activity)”. In data set [2], inhibition was half-maximal at 18.7 ± 1.37 µM (IC50). Further, in data set [3], the IC50 at 72 h was more than 10 µM.
In the case of `CC[C@@]1(O)C(=O)OCc2c1cc1n(c2=O)Cc2cc3ccccc3nc2-1` [CPT, camptothecin, reference compound], the IC50 in data set [4] (Homo sapiens, HCT-116, 72 h) turned out to be 0.012 ± 0.001 µM; in data set [1] (Homo sapiens, MCF7, 72 h), 0.34 ± 0.026 µM. For the same compound, in data set [5] (setting [6]), the “supercoiled DNA remaining” value is 58%. This compound also gave an IC50 at 72 h in data set [3] of 0.1 ± 0.003 µM.
The compound `Oc1ccc(/C=C/c2nc(-c3ccc(Br)cc3)cs2)cc1` [Compound 35, (E)-4-(2-(4-(4-bromophenyl)thiazol-2-yl)vinyl)phenol] yielded a melting point of 204 to 205 °C. In data set [4] (72 h), this compound came in with an IC50 of 2.86 ± 0.46 µM. Also, the IC50 in data set [4] (Homo sapiens, HCT-116, 72 h) was less than 5 µM. This compound displayed an IC50 in data set [1] (Homo sapiens, MCF7, 72 h) of 38 ± 5.82 µM. In data set [5], the “Relaxation Assay (Top1 inhibitory activity)” value is reported as “+ (less than 10% activity)”.
Compound `Cc1ccc(/C=C/c2nc(-c3ccc(F)cc3)cs2)cc1` [Compound 9, (E)-2-(4-methylstyryl)-4-(4-fluorophenyl)thiazole] displayed a melting point of 164 to 166 °C. The same compound showed an IC50 in data set [4] (Homo sapiens, HCT-116, 72 h) of 21.9 ± 4.29 µM. Further, the IC50 in data set [1] (Homo sapiens, MCF7, 72 h) amounted to 65.5 ± 3.11 µM. Moreover, the “Relaxation Assay (Top1 inhibitory activity)” value in data set [5] is given as “+ (less than 10% activity)”.
Compound `Oc1ccccc1/C=C/c1nc(-c2ccc(Br)cc2)cs1` [Compound 33, (E)-2-(2-(4-(4-bromophenyl)thiazol-2-yl)vinyl)phenol] registered a melting point of 226 to 228 °C. Besides, the IC50 in data set [4] (72 h) was found to be 4.15 ± 0.76 µM. Besides, the IC50 in data set [4] (Homo sapiens, HCT-116, 72 h) is less than 5 µM. The same compound had an IC50 in data set [1] (Homo sapiens, MCF7, 72 h) of 39.2 ± 1.79 µM. Besides, in data set [5], the “Relaxation Assay (Top1 inhibitory activity)” value is “+ (less than 10% activity)”.
